Values belong to the molecule of their own block, whether it stands above or below them.
What was measured:
P-Selectin [1] = target: T1, P-Selectin (Homo sapiens, UniProt P16109); experiment: Inhibition of neutrophil adhesion to thrombin activated platelets by glycolipids in liposomes; format: cell-based; details: for IC50: read-out: AMOUNT REQUIRED FOR 50% INHIBITION
T1 construct: endogenous in cells
T1 sequence (P16109 42-830): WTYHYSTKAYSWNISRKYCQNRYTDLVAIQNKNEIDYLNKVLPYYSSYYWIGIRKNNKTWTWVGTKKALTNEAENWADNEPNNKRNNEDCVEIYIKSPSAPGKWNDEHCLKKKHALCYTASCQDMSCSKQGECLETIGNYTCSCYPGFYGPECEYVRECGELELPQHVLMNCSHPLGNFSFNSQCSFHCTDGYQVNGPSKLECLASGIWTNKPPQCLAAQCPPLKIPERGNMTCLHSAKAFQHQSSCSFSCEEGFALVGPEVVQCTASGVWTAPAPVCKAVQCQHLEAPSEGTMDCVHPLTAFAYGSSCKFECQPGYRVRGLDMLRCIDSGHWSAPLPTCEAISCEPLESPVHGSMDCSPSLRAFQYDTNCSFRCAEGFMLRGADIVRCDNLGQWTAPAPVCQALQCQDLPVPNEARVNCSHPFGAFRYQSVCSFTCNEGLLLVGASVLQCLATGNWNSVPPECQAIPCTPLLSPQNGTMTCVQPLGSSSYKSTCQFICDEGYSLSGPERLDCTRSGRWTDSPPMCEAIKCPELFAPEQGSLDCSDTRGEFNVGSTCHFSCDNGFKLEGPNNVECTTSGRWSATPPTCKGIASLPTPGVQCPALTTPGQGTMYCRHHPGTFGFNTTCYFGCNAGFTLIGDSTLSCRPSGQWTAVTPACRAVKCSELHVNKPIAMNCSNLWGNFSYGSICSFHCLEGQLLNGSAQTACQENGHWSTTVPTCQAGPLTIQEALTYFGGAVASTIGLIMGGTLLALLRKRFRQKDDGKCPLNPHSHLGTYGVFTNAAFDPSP
Method: 3. For the assay, 20 μl of the platelet suspension (2×10^8 /ml) was placed in a microcentrifuge tube. […] Twenty μl of the neutrophil preparation (2×10^6 /ml) was then added and the tubes were allowed to stand for a further 20 min at room temperature.
(§1) 4. Adhesion of activated platelets to the neutrophils was assessed microscopically. One hundred neutrophils were evaluated. They were scored as positive if 2 or more platelets were attached and negative if less than 2 platelets were bound. The percent of cells with 2 or more bound platelets was calculated.
This example describes experiments testing various glycolipid structures on liposomes. In particular, SY2, a sialylated polysaccharide in which the fucose, instead of being attached to the ultimate GlcNAc as in SLe^x, is attached to the penultimate GlcNAc, was tested. Platelets and neutrophils were isolated by the methods described above. Platelets were activated with thrombin and then incubated with dilutions of various glycolipids embedded in liposomes prepared as described above. Neutrophils were added and the effect of the glycolipids on the adhesion of neutrophils to activated platelets was determined.
Structures of the various glycolipids examined are as follows: SDiY2, NeuGcα2,3Galβ1,4(Fucα1,3)GlcNacβ1,3Galβ1,4 (Fucα1,3)GlcNAcβ1,3Galβ1,4Glcβ1,1Cer; SLe^x, NeuGcα2,3Galβ1,4 (Fucα1,3)GlcNAcβ1,3Galβ1,4Glcβ1,1Cer; SY2, NeuGcα2,3Galβ1,4 GlcNAcβ1,3Galβ1,4(Fucα1,3)GlcNAcβ1,3Galβ1,4Glcβ1,1Cer; SH, NeuGcα2,3Galβ1,4GlcNAcβ1,3Galβ1,4GlcNAcβ1,3Galβ1,4Glcβ1,1Cer; SPG, NeuGcα2,3Galβ1,4GlcNAcβ1,3Galβ1,4Glcβ1,1Cer.
All materials were prepared as described above. Platelets and neutrophils were isolated by the methods described. Platelets were activated with thrombin and then incubated with dilutions of various glycolipids contained in liposomes. Neutrophils were added and the effect of the glycolipids on the adhesion of neutrophils to activated platelets was determined.
The results of an experiment in which synthetic SLe^x (NeuAc) and a preparation of SLe^x prepared by enzymatic fucosylation of sialylparagloboside purified from bovine erythrocytes, SLe^x (NeuGc), were directly compared are shown in Table 4.

P-Selectin [2] = target: T1, P-Selectin; experiment: Oligosaccharide/polysaccharide inhibition of neutrophil adhesion to thrombin activated platelets; format: cell-based
Method: (§2) Briefly, platelets and neutrophils were isolated by the methods described above. Platelets were activated with thrombin and then incubated with dilutions of various oligosaccharides. Neutrophils were added, and the effect of the saccharides on the adhesion of neutrophils to activated platelets was determined.
1. Platelets were isolated as described above and were activated (2×10^8 /ml) by incubation for 20 min at room temperature with thrombin at a final concentration of 0.25 U/ml.
2. Neutrophils were isolated by layering heparinized blood over Mono-Poly Resolving Medium (Ficoll-Hypaque-Flow Laboratories), followed by centrifugation for 25 min at 2000 rpm and then, a further 25 min at 2500 rpm as described above.
3. For the assay, 20 μl of the platelet suspension (2×10^8 /ml) was placed in a microcentrifuge tube. An equal volume of the oligosaccharide preparations at concentrations from 200 μg/ml to 0.3 μg/ml, or of glycolipid-liposome preparations (prepared as described above), at concentrations from 2 μg/ml to 0.25 μg/ml, was added and the tubes were allowed to stand at room temperature for 20 min. Twenty μl of the neutrophil preparation (2×10^6 /ml) was then added and the tubes were allowed to stand for a further 20 min at room temperature.
as §1
as §2, with “added” for “added,”
Platelets were isolated as described above and were activated (2×10^8 /ml) by incubation for 20 min at room temperature with thrombin at a final concentration of 0.25 U/ml.
Neutrophils were isolated by layering heparinized blood over Mono-Poly Resolving Medium (Ficoll-Hypaque, Flow Laboratories), followed by centrifugation for 25 min at […] and then, a further 25 min at 2500 rpm as described above.
For the assay, 20 μl of the platelet suspension (2×10^8 /ml) was placed in an Eppendorf centrifuge tube. An equal volume of the oligosaccharide preparations at concentrations from 500 μg/ml to 2.0 μg/ml was added and the tubes were allowed to stand at room temperature for 20 min. Twenty […] of the neutrophil preparation (2×10^6 /ml) was then added and the tubes were allowed to stand for a further 20 min at room temperature.
as §1, with “Adhesion” for “4. Adhesion”

[3] = Table 3, experiment not specified

Molecule: CC(=O)N[C@H]1[C@H]([C@H](O)[C@H](O)CO)O[C@@](O[C@H]2[C@@H](O)[C@@H](CO)O[C@@H](O[C@H]3[C@H](O[C@@H]4O[C@@H](C)[C@@H](O)[C@@H](O)[C@@H]4O)[C@@H](NC(C)=O)C(O)O[C@@H]3CO)[C@@H]2O)(C(=O)O)C[C@@H]1O (some centres unmarked) [SLe^x (NeUAc)]
IC50 (P-Selectin [1]; Table 4): 670 nM

Molecule: CC(=O)N[C@H]1[C@H]([C@H](O)[C@H](O)CO)O[C@@](O[C@H]2[C@@H](O)[C@@H](CO)O[C@@H](O[C@H]3[C@H](O[C@@H]4O[C@@H](C)[C@@H](O)[C@@H](O)[C@@H]4O)[C@@H](NC(C)=O)C(O)O[C@@H]3CO)[C@@H]2O)(C(=O)O)C[C@@H]1O (some centres unmarked) [SLe^x (tetra), NeuAcα2,3Galβ1,4 (Fucα1,3)GlcNAc]
IC50 (P-Selectin [2]; Table 2, mean of three identical experiments, read-out: AMOUNT REQUIRED FOR 50% INHIBITION (converted)): 54000 nM
times more required for 50% inhibition than of the SLe^x-hexasaccharide (P-Selectin [2]; tetrasaccharide versus hexasaccharide): approximately 20 times

Molecule: CC(=O)N[C@H]1[C@H](O[C@H]2[C@@H](O)[C@@H](CO)O[C@@H](O[C@H]3[C@H](O)[C@@H](O)C(OCC[Si](C)(C)C)O[C@@H]3CO)[C@@H]2O)O[C@H](CO)[C@@H](O[C@@H]2O[C@H](CO)[C@H](O)[C@H](O[C@]3(C(=O)O)C[C@H](O)[C@@H](NC(C)=O)[C@H]([C@H](O)[C@H](O)CO)O3)[C@H]2O)[C@@H]1O[C@@H]1O[C@@H](C)[C@@H](O)[C@@H](O)[C@@H]1O (some centres unmarked) [SLe^x Hexasaccharide]
IC50 (P-Selectin [2]; read-out: AMOUNT REQUIRED FOR 50% INHIBITION, Table 6): 6420 nM
IC50 (P-Selectin [2]; read-out: amount for 50% inhibition of P-Selectin mediated binding of neutrophils to thrombin activated platelets, Table 6): 6420 nM

Now from value to molecule:

IC50 (P-Selectin [1]; Table 3, Exp 1): 325 nM
IC50 (P-Selectin [1]; Table 3, Exp 2): 345 nM
inhibition of P-Selectin mediated adhesion of neutrophils to thrombin activated platelets (P-Selectin [1]; in words, relative): equally as well as did SLe^x and SDiY2
Molecule: NeuGcα2,3Galβ1,4 GlcNAcβ1,3Galβ1,4(Fucα1,3)GlcNAcβ1,3Galβ1,4Glcβ1,1Cer [SY2]

IC50 (P-Selectin [1]; [3]): 360 nM
Molecule: NeuGcα2,3Galβ1,4(Fucα1,3)GlcNacβ1,3Galβ1,4 (Fucα1,3)GlcNAcβ1,3Galβ1,4Glcβ1,1Cer [SdiY2]

AMOUNT REQUIRED FOR 50% INHIBITION (P-Selectin [1]; [3]): No Inh.
Molecule: NeuGcα2,3Galβ1,4GlcNAcβ1,3Galβ1,4GlcNAcβ1,3Galβ1,4Glcβ1,1Cer [SH, reference compound]

AMOUNT REQUIRED FOR 50% INHIBITION (P-Selectin [1]; [3]): No Inh.
Molecule: NeuGcα2,3Galβ1,4GlcNAcβ1,3Galβ1,4Glcβ1,1Cer [SPG, reference compound]

— US5753631A, “Intercellular adhesion mediators” (Cytel Corporation, priority 1995, dated 1998)
